Entries after “also recorded” stand apart in the source; their conditions may differ.
Assays:
TDP-43 transgenic mice = TDP-43 transgenic mice (ALS): rotarod and grip strength; type: in vivo
human A2AR = human A2AR (Homo sapiens, UniProt P29274); test: A2AR radioligand binding assay (3H-CGS21680)
Protocol: (§1) Binding of the indicated compounds to A2A adenosine receptor (A2AR) and an adenosine transporter (ENT1) was characterized using standard binding protocols.
(§2) Radioligand binding assays. Radioligand binding assays were performed by MDS Pharma Services Taiwan (Taipei, Taiwan) using standard binding protocols. For A2AR binding assays, membrane proteins collected from HEK293 cells overexpressing human A2AR were incubated in the reaction buffer [50 mM Tris-HCl (pH 7.4), 10 mM MgCl2, 1 mM EDTA, and 2 U/mL adenosine deaminase] containing ^3H-CGS21680 (50 nM) for 90 min at 25° C. Nonspecific binding was assessed in the presence of 50 μM adenosine-5′-N-ethylcarboxamide. […] Binding assays for adenosine transporters were conducted as described earlier. Membrane fractions collected from the cerebral cortex of Duncan Hartley-derived guinea pigs were incubated with ^3H-labeled 6-[(4-nitrobenzyl)thio]-9-β-D-ribofuranosylpurine (NBTI, 0.5 nM) for 30 min at 25° C. in the incubation buffer containing 50 mM Tris-HCl (pH 7.4). […] Reactions were terminated by filtration over GF/B glass fibers and washing with the reaction buffer.

[1] = target: T1, adenosine transporter (ENT1) (Cavia porcellus, UniProt H0V4R7); test: Adenosine transporter (ENT1) radioligand binding assay (3H-NBTI)
T1 sequence (H0V4R7 1-461): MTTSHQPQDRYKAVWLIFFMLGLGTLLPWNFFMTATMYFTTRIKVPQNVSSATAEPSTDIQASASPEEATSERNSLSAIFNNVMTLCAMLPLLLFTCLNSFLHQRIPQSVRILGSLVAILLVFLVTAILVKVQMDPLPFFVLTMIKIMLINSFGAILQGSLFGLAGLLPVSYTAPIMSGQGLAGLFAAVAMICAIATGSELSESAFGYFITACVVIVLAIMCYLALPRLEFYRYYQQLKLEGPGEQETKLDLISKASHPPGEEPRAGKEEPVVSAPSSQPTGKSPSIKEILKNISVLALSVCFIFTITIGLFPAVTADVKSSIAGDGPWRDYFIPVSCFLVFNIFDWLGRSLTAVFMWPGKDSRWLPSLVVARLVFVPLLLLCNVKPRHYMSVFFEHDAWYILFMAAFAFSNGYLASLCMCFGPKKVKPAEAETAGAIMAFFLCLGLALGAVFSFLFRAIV
Protocol: as §1, §2

[2] = test system: SCA3 transgenic mice expressing ataxin-3-Q79; test: SCA3 transgenic mice: rotarod test and NeuN staining of pontine nuclei; conditions: 4-month-old SCA3 transgenic mice
Protocol: (A) SCA3 transgenic mice were given drinking water containing vehicle (0.2% DMSO) or T1-11 (0.1 mg/ml) beginning at 4 weeks-old.
Behavioral test. Balance and coordination functions of mice were determined by performing rotarod test. Mice were placed on the moving drum of a rotarod apparatus (Accelerating Model, Ugo Basile Biological Research Apparatus), which was then accelerated until mouse fell from the drum onto a plate to stop the timer. Latency to fall was measured in four daily trials over the course of 4 days.
Immunohistochemical staining. Wild-type or SCA3 transgenic mice were anesthetized and perfused transcardially with 4% paraformaldehyde in PBS. Brain was equilibrated in Tissue-Tek embedding medium and frozen in liquid nitrogen. Coronal sections (20 μm) prepared by cryostat sectioning were permeabilized in 0.1% Triton X-100, and incubated at 4° C. for 48 hours with diluted anti-NeuN monoclonal antiserum (Chemicon). Subsequently, sections were washed and incubated with biotinylated horse anti-mouse IgG followed by incubation with avidin-biotin-horseradish peroxidase complex. The sections were then washed and developed in a diaminobenzidine solution. NeuN-positive neurons were visualized and counted by a Leica DM2500 microscope equipped with a Retiga-2000R CCD camera (QImaging) and a 3-axis computer-controlled MAC 600 motorized stage (Ludl Electronics) with the aid of StereoInvestigator software (MBF Bioscience). Each analysis included the processing of 15 brain sections per mouse.

[3] = Oral bioavailability / pharmacokinetic study in ICR mice; type: in vivo
Protocol: To measure oral bioavailability of a test compound, blood samples were collected from male ICR mice (6 weeks old; 20-25 g) after oral (10 mg/kg) or intravenous (1 mg/kg) administrations of the test compound. The blood samples collected at the indicated periods were extracted with methanol containing 0.1% formic acid, and then 10 μL of each extracted sample were injected to UPLC-MSMS for quantitation.
Pharmacokinetic Study. The compound was administered as aqueous solutions in normal saline. Male ICR mice were purchased from BioLASCO Taiwan Co., Ltd. To measure oral bioavailability of test compounds (T1-11 and JMF3464), blood samples were collected from male ICR mice (6 weeks old; […]) after oral (10 mg/kg) or intravenous (1 mg/kg) administrations of test compounds. For T1-11, blood samples were collected at 2, 10, 30, 60, 120, 360 minutes after intravenous administration and at 15, 30, 45, 60, 120, 360 minutes after oral administration. For JMF3464, the blood samples were collected at 2, 10, 30, 60, 120, 240, 360, 480 minutes after intravenous administration and at 15, 30, 60, 90, 120, 240, 360, 480 minutes after oral administration. The blood samples were extracted by methanol with 0.1% formic acid, and then 10 μL of the extracted samples were injected to UPLC-MSMS to for quantitation.
The pharmacokinetic parameters were obtained using a pharmacokinetic program WinNonlin, fitting data to a noncompartmental model. […] The total plasma clearance (CL) was calculated as dose/AUCi.v.. The oral bioavailability (F) of the test compound by oral administration was calculated from the AUC0-∞ of the oral dose divided by the AUC0-∞ of the i.v. dose.

R6/2 mice = test: Transgenic mouse model (R6/2) of Huntington's disease: rotarod and lifespan; type: in vivo
Protocol: FIGS. 3A-B show the effect of JMF3464 on motor deficits and lifespan. […] Rotarod performance (A) and lifespan (B) of these mice were assessed. * p<0.05. *** p<0.005.
As the A2AR and ENT1 are located in the striatum and have been implicated in striatal function, we hypothesized that chronic treatment with JMF3464 would modulate the progression of HD. We tested the effect of JMF3464 in a transgenic mouse model (R6/2) of HD in which A2AR agonists have beneficial effects.
Animals and drug administration. Male R6/2 mice (Mangiarini et al., 1996 Cell. 87:493-506) and littermate controls were originally obtained from Jackson Laboratories (Bar Harbor, Me., USA), and mated to female control mice (B6CBAFI/J). Offspring were identified by a polymerase chain reaction (PCR) genotyping technique of genomic DNA extracted from tail tissues using primers located in the transgene (5′-[…]-3′; SEQ ID NO: 1, and 5′-GGCTGAGGAAGCTGAGGAG-3′; SEQ ID NO: 2) to ensure that the number of CAG repeats remained approximately 150. […] Body weights of mice were recorded once daily. […]
Rotarod performance. Motor coordination was assessed using a rotarod apparatus (UGO BASILE, Comerio, Italy) at a constant speed (12 rpm) over a period of 2 min (Carter et al., 1999 J Neurosci. 19:3248-3257). […] Latency to fall was recorded automatically. […]

NSC34 cells = test: TDP-43 mislocalization caused by AICAR (AMPK activation), immunostaining; type: cell-based; conditions: 30 μM, 1 h pretreatment then AICAR 1 mM for 24 hrs
Protocol: Cells were pretreated with JMF3464 (30 μM) for one hour, and then treated with AICAR (1 mM, Al) in the presence of JMF3464 for additional 24 hrs. TDP-43 (red) localization was analysed by immunostaining. The locations of nuclei were marked by Hochest (blue).
Cell culture and transfection. The motor neuron cell line (NSC34) was a generous gift from Dr. Neil Cashman (Brain Research Centre, The University of British Columbia, Canada), and cultured in a high-glucose Dulbecco's modified Eagle's medium (DMEM) containing 10% fetal calf serum (FCS), 2 mM L-glutamine, and 1% penicillin/streptomycin (Invitrogen GibcoBRL, Carlsbad, Calif., USA) at 37° C. under 5% CO2.

[4] = test system: mice treated with intermittent cold stress; test: Intermittent cold stress model of fibromyalgia; type: in vivo
Protocol: FIGS. 10A-C show the analgesic effect of JMF3464 on a mouse model of fibromyalgia. […] Open arrows indicate the time mice received acid injection. Black arrows indicate the time mice received T1-11 (p.o.). […] The analgesic effect of JMF3464 is dose-dependent. The effective dose started from 100 μg/kg (i.p.).
Intermittent cold stress model. The fibromyalgia model was developed by Ueda's group, in which mice were treated with intermittent cold stress for 2 days (Nishiyori and Ueda, 2008 Mol Pain. 4:52). Mice treated with intermittent cold stress developed long-lasting (>2 weeks) mechanical and thermal hyperalgesia. Analgesic effects of JMF3464 (i.p. or p.o.) were tested in these mice 5 days after intermittent cold stress. Mechanical hyperalgesia was assayed by testing the withdrawal response of mouse hindpaws to 0.2-mN von Frey filament stimulation.

PC12 cells = test: Serum deprivation-induced cell death, MTT assay; type: cell-based, Rat; conditions: serum-deprived PC12 cells, 24 h
Protocol: Serum-deprived PC12 cells were treated with or without the indicated reagent(s) for 24 h. Cell viability was expressed as a percentage of the results from MTT assays compared to the mean of a serum-containing control group. Data points represent the mean±SEM (n=3˜6).
Rat PC12 cells purchased from American Type Culture Collection (ATCC; Manassas, Va., USA) were maintained in DMEM supplemented with 10% horse serum and 5% FBS and incubated in a CO2 incubator (5%) at 37° C. LIPOFECTAMINE™ 2000 (Invitrogen) was used as a vehicle to transfer plasmids into cells according to the manufacture's protocol. Plasmids were kindly provided by Dr. Pulst (Department of Neurology, University of Utah, USA). Normally, 5 μg of DNA combined with 5 μl of LIPOFECTAMINE™ 2000 was applied to each well of 6-well plates. The plating number was (1˜1.5)×10^6 cells/well. After transfections for 6 h, cells were treated with reagents for another 24 h. Images were taken with a Zeiss Axiovert 200M inverted fluorescence microscope (Göttingen, Germany).
MTT assay. Survival was assessed by 3-(4,5-dimethylthiazol-2-yl)-2,5-diphenyl tetrazolium bromide (MTT) metabolism assay. […] After discarding the medium, DMSO was applied to the well to dissolve formazan crystals, and the absorbances at 570 and 630 nm in each well were measured on a micro-enzyme-linked immunosorbent assay (ELISA) reader.

[5] = 3.7, 1.25, 0.5 and 0.1 mg/kg/day, subcutaneous osmotic pump, vs control mice

Sequence of human A2AR (P29274 whole entry): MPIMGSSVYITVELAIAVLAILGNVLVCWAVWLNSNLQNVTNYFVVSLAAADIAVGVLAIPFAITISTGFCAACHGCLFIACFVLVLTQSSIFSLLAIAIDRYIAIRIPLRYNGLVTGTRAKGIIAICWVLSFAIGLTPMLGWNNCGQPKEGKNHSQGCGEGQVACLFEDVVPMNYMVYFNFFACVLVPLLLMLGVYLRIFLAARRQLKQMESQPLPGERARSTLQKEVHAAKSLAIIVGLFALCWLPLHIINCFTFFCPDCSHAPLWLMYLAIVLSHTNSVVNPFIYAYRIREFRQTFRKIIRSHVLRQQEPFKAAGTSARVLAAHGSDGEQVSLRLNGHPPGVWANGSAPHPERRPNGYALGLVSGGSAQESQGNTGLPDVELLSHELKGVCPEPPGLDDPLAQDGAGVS

Row | inhibition at 10 µM (human A2AR; read-out: inhibition of A2A receptor) [%] | inhibition at 10 µM ([1]; read-out: inhibition of adenosine transporter (ENT1)) [%] | Compound | grip strength (TDP-43 transgenic mice; [5]) | rotarod performance (TDP-43 transgenic mice; [5]) | dose showing the greatest benefit (TDP-43 transgenic mice; rotarod and grip strength) [mg/kg] | Ki (human A2AR) [nM] | Ki [1] [nM] | pontine neuronal death (NeuN staining) ([2]; daily oral 1 mg per day) | rotarod performance ([2]; daily oral 1 mg per day) | oral absorption relative to T1-11 ([3]; JMF3464 vs T1-11) | bioavailability ([3]; male, mouse, plasma, oral 10 mg/kg vs intravenous 1 mg/kg) [%] | motor coordination assessed by rotarod performance (R6/2 mice; R6/2 mice from 7 weeks old, 0.11 mg/kg/day, subcutaneous osmotic minipump, 6 weeks) | lifespan (R6/2 mice; R6/2 mice, sustained (long term) treatment) | TDP-43 mislocalization (NSC34 cells) | effective dose (start) ([4]; i.p.) [mg/kg] | analgesic effect ([4]; i.p., dose-dependent, von Frey mechanical hyperalgesia) | analgesic effect, oral administration ([4]; p.o. 1 mg/kg) | rotarod performance / ataxia ([2]; daily 0.3 mg per day) | pontine neuronal death (NeuN staining) ([2]; daily oral 0.3 mg per day) | apoptosis of PC12 cells caused by serum withdrawal (PC12 cells)
1 |  |  | OC[C@H]1O[C@@H](n2cnc3c(NCCc4c[nH]c5ccccc45)ncnc32)[C@H](O)[C@@H]1O [JMF1907, N^6-[2-(indol-3-yl)ethyl]adenosine] | statistical significance was reached at all points for all tested doses; also recorded: performed significantly better | statistical significance was reached at all points for 1.5 & 0.5 mg/kg, from 12-21 wk for 0.1 mg/kg, and 10-12 wk for 3.7 mg/kg; also recorded: performed significantly better | 1.25 | 4390 | 3470 | significantly prevented neuronal death in the pontine nuclei; also recorded: significantly alleviated pontine neuronal death | significantly improved rotarod performance |  |  |  |  |  |  |  |  |  |  | 
2 |  |  | OC[C@H]1O[C@@H](n2cnc3c(NCc4ccc(Br)s4)ncnc32)[C@H](O)[C@@H]1O [JMF3464, N^6-[(5-bromothien-2-yl)methyl]adenosine] |  |  |  | 1700 | 50 |  |  | more than 6 fold | 17.4 | counteracted the progressive deterioration in motor coordination | improved | reduced TDP-43 mislocalization; also recorded: normalized TDP-43 mislocalization | ≥ 0.1 | showed an analgesic effect | showed an analgesic effect | greatly improved the rotarod performance; also recorded: alleviated the ataxia | significantly ameliorated neuronal death in the pontine nuclei; also recorded: alleviated | 
3 | 54 | 96 | OC[C@H]1O[C@@H](n2cnc3c(NCc4ccc(Cl)s4)ncnc32)[C@H](O)[C@@H]1O [JMF3818, N^6-[(5-Chlorothien-2-yl)methyl]adenosine] |  |  |  |  |  |  |  |  |  |  |  |  |  |  |  |  |  | inhibited the apoptosis of PC12 cells caused by serum withdrawal
